Consider one molecule from article PMC8634879, “Design, Synthesis, and Biological Evaluation of Pyrano[2,3-c]-pyrazole–Based RalA Inhibitors Against Hepatocellular Carcinoma” (Frontiers in Chemistry, 2021).

One series deals with HepG2 xenograft. In words: HepG2 subcutaneous xenograft model. Format: in vivo. As for the experimental part:
Several reports have characterized RalA/B potential regulatory roles in autophagy ([Zhang et al., 2019]; [Pang et al., 2020]; [Zhang et al., 2020]). Considering the dual effect of HCC autophagy, we assessed changes in HepG2 cell autophagy levels after the addition of 0.5 or 2.0 μM of 4p, before incubation. Based on HepG2 cells’ TEM images with or without 4p (Figure 5B), autophagy vacuoles per cell decreased in the 4p-treated group (p < 0.01). After 4p treatments, LC3-II and ATG5 protein levels declined and SQSTM1 increased. […] In GFP-LC3–transfected HepG2 cells, cytoplasm LC3 fluorescent puncta numbers also declined after 4p treatments. […] The in vivo antitumor capacities of 4p were determined on a HepG2 subcutaneous xenograft model. The 4p intraperitoneal injections were set to 15 mg/kg and 60 mg/kg, according to in vitro results. […] The potential 4p molecular mechanisms were further validated using immunofluorescence and IHC analyses of tissue sections stained by antibodies against TUNEL, Ki-67, RalA, LC3-II, and SQSTM1. […] Therefore, the in vivo results were consistent with in vitro experiments.
Female Balb/c nude mice aged 6–8 weeks were purchased from Beijing Huafukang Co. Ltd. (Beijing, China). Animal-based experiments complied with the guidelines of the Animal Ethics Committee (Sichuan University), and all aspects were approved by the Animal Ethics Committee of West China Hospital of Sichuan University (China). In brief, HepG2 cells were injected subcutaneously in the dorsal flank of Balb/c nude mice (5*10^5 cells per mice). Tumor volumes were recorded every 2 days post cancer cell injection. After the therapeutic endpoint, all mice were euthanized, and tumor tissues were stripped, fixed in formalin, embedded in paraffin, and sectioned. The IHC and immunofluorescent staining methods were performed following methods as per our previous research, ([Zhang et al., 2019]; [Pan et al., 2020]; [Pang et al., 2020]; [Zhang et al., 2020]), and detailed experimental procedures are also described in supporting materials. […]
2. Western blotting analysis
For western blotting, the extracts of total protein from each sample were treated in accordance with the method we described previously. In short, the total proteins were loaded into the SDS-PAGE gel and separated through the different of their molecular weight in electrophoresis, after that the separated proteins were shifted into a PVDF membrane (Millipore, Burlington, MA, USA) and incubated through corresponding membrane react pathways. The resulted membranes reacted with major antibodies and HRP (horseradish peroxidase)-conjugated secondary antibodies. The expression profiles of target proteins can be identified through an enhanced chemiluminescence (ECL) substrate.
3. Immunohistochemistry and immunofluorescent assays
The histological sections of tumor tissue were immersed into EDTA antigen recovery buffer (pH 8.0) or citrate buffer (pH 6.0), and then microwave was used to recover antigen. Then the slide was incubated with the corresponding primary antibody at 37 ℃ for 30-40 min. Normal anti-rabbit or anti-mouse IgG was used as a negative control group. Immunohistochemical analysis was performed with diaminobenzidine solution after the sections was treated with HRP polymer as well as the second antibody for 30 min. Immunofluorescence (IF) test was carried out by treating slides with fluorescein combined with secondary antibody and detecting under fluorescence microscope. The IHC staining method is to use the corresponding primary antibody, as we reported in previous

In the next series the target is T1, RalB (Homo sapiens, UniProt P11234).
T1 construct: expressed in transfected cells; host or cells: HepG2 (from b6; the methods paragraph names no cell line)
T1 sequence (P11234 1-203 limits assumed): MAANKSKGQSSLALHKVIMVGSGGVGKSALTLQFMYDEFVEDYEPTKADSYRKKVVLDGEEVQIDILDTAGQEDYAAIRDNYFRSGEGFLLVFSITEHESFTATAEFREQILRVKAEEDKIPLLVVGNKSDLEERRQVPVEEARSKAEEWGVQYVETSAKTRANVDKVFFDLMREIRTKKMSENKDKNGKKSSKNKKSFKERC
The experiment in a line: GST pulldown of activated RalB. The class given is cell-based. Conditions: 2.0 μM. As for the experimental part: GST pulldown assays were performed to assess 4p RalA/B inhibitory capacities. […] Only activated RalA was suppressed after incubation with 0.5 μM of compound 4p (Figure 5A).
The in vitro RalA/B bioactivity assays were performed following methods outlined in previous reports. ([Yan et al., 2016]; [Zhang et al., 2018]; [Walsh et al., 2019]; [Bum-Erdene et al., 2020]). In brief, the lysates of the test compound or vehicle-treated cells were cleared using cold centrifugation, and supernatants were collected. An RalBP1 solution was added to 96-well plates and incubated for 1–2 h, and then the plates were washed thrice using ELISA buffer. Next, cellular lysates were added, and samples were incubated overnight at 4°C. Then, ice-cold mouse anti-FLAG antibody was added, and samples were incubated for one more hour. After subsequent washing with ELISA buffer thrice, the HRP-conjugated anti-mouse antibody was added, and samples were incubated for another hour. Then, the HRP substrate was added. Antigen–antibody reactions were quenched by the addition of sulfuric acid (2 mol/L). Remaining RalA/B was detected by the OD450 values which were collected by using a plate reader. Cell proliferation assays, colony formation assays, apoptosis assays, GST pulldown, and Western blotting were used following methods outlined in our previous reports. […]

A further series relates to Huh-7 cells. The experiment in a line: Cell proliferation assay (MTT), Huh-7. Conditions: Homo sapiens. Format: cell-based. The procedure, abridged:
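HCC lines cultured in DMEM with 10% FBS and streptomycin; cytotoxicity measured by MTT method as previously described.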

Read-outs that look alike come from different tables or passages of the source.

As for `COc1ccc(S(=O)(=O)NC2=C(C#N)C(c3ccc(C(F)(F)F)cc3)c3c(C)nn(-c4ccccc4)c3O2)cc1` (stereo not shown) [4p, N-(5-cyano-3-methyl-1-phenyl-4-(4-(trifluoromethyl)phenyl)-1,4-dihydropyrano[2,3-c]-pyrazol-6-yl)-4-methoxybenzenesulfonamide], in the series with HepG2 xenograft (15 and 60 mg/kg i.p.), the body weights result is given as “without significant changes”. Moreover, the “total RalA levels in tumor sections” value in the series on HepG2 xenograft (IHC) was “No clear changes”. In the series with HepG2 xenograft (both high- and low-dosage groups (60 and 15 mg/kg i.p.), p < 0.01), the “mean tumor weights compared to the control” value was “notably declined”. In the series on HepG2 xenograft (high dosage group, immunofluorescence/IHC), the “TUNEL and SQSTM1 levels in tumor sections” value is reported as “increased”. Moreover, the “LC3-II expression in tumor sections” value in the series with HepG2 xenograft (high dosage group, p < 0.01) was “decreased”. The “tumor growth inhibition (TGI)” value with HepG2 xenograft (high dosage, 60 mg/kg intraperitoneal injection) turned out to be 63%; in the series with HepG2 xenograft (low dosage, 15 mg/kg intraperitoneal injection), 39%. In addition, the “activated RalB protein expression level” value at RalB is on record as “significantly suppressed”. The IC50 – broadly, the concentration at which inhibition is half-maximal – with Huh-7 cells (Table 1, cell proliferation inhibition, read-out: IC50 (μM) Huh7) is 4.31 ± 0.39 µM; with Huh-7 cells (Table 2, average of at least three independent replicates ± SD, read-out: Anti-proliferative activities (IC50, μM) Huh-7), 4.31 ± 0.39 µM.
